From the CheMixHub drug solubility set

Assay: xn = mol fraction of the nth substance listed, in the solute-free solvent

CN1CCN(C2=Nc3cc(Cl)ccc3Nc3ccccc32)CC1 + CN1CCCC1=O + O
solubility (g/100 g solution)
Conditions	x2 = 0.0198	x2 = 0.04347	x2 = 0.07228	x2 = 0.1081	x2 = 0.1538	x2 = 0.2143	x2 = 0.2979	x2 = 0.421	x2 = 0.6207
278.15 K	0.00909	0.045	0.169	0.497	1.2	2.31	3.88	5.87	7.69
283.15 K	0.0126	0.0614	0.224	0.65	1.5	2.92	4.64	6.96	9.05
288.15 K	0.0173	0.0846	0.297	0.832	1.86	3.58	5.6	8.28	10.5
293.15 K	0.0228	0.113	0.388	1.02	2.32	4.34	6.81	9.65	12
298.15 K	0.0318	0.148	0.501	1.3	2.84	5.22	7.94	11.2	13.9
303.15 K	0.0423	0.192	0.629	1.6	3.48	6.19	9.35	12.8	15.9
308.15 K	0.0547	0.257	0.793	2.01	4.21	7.31	10.9	14.7	18
313.15 K	0.071	0.329	1.02	2.46	5.04	8.54	12.7	16.8	20.2
318.15 K	0.0919	0.419	1.25	2.99	5.94	9.98	14.5	19	22.5
323.15 K	0.12	0.537	1.56	3.57	6.98	11.6	16.5	21.4	25.1
328.15 K	0.155	0.673	1.89	4.3	8.24	13.4	18.7	24	28

Cc1[nH]c(=O)c(C#N)cc1-c1ccncc1 + CC(C)O + O
solubility (g/100 g solution)
Conditions	278.15 K	283.15 K	288.15 K	293.15 K	298.15 K	303.15 K	308.15 K	313.15 K	318.15 K	323.15 K
x2 = 0.03225	0.00105	0.00126	0.00148	0.00173	0.00202	0.00231	0.00261	0.00296	0.00333	0.00376
x2 = 0.06974	0.00174	0.00206	0.00243	0.00283	0.0033	0.00374	0.00423	0.00479	0.00537	0.00604
x2 = 0.1139	0.00266	0.00311	0.00366	0.00429	0.00498	0.00565	0.00635	0.00712	0.00801	0.00906
x2 = 0.1666	0.00378	0.00445	0.00523	0.00608	0.00705	0.00798	0.009	0.0102	0.0114	0.0128
x2 = 0.2307	0.00502	0.00587	0.00684	0.00797	0.00927	0.0105	0.0119	0.0135	0.0151	0.017
x2 = 0.3103	0.00629	0.00741	0.00871	0.0101	0.0118	0.0133	0.015	0.0171	0.019	0.0214
x2 = 0.4117	0.00743	0.00875	0.0102	0.0119	0.0137	0.0155	0.0178	0.02	0.0224	0.0256
x2 = 0.5454	0.0083	0.00978	0.0115	0.0135	0.0155	0.0177	0.02	0.0226	0.0256	0.0291
x2 = 0.7297	0.00873	0.0102	0.012	0.0141	0.0163	0.0188	0.0214	0.0243	0.0274	0.0314

CC(N)C(=O)O (stereo unspecified) + O + CCCO
solubility (g/100 g solution)
Conditions	x2 = 0.1	x2 = 0.2	x2 = 0.3	x2 = 0.4	x2 = 0.5	x2 = 0.6	x2 = 0.7	x2 = 0.8	x2 = 0.9
283.15 K	0.0276	0.0472	0.0784	0.143	0.358	0.635	1.29	2.39	4.58
293.15 K	0.0384	0.0536	0.0822	0.164	0.384	0.742	1.56	3.01	5.63
303.15 K	0.0461	0.0689	0.0947	0.202	0.439	0.892	1.89	3.69	6.82
313.15 K	0.0649	0.0791	0.109	0.224	0.504	1.12	2.27	4.41	8.24
323.15 K	0.0824	0.114	0.147	0.268	0.594	1.29	2.65	5.2	9.44

CC(=O)N1CCN(c2ccc(OCC3COC(Cn4ccnc4)(c4ccc(Cl)cc4Cl)O3)cc2)CC1 (stereo unspecified) + CC#N + O
solubility (g/100 g solution)
Conditions	x2 = 0.04651	x2 = 0.0989	x2 = 0.1583	x2 = 0.2264	x2 = 0.3051	x2 = 0.397	x2 = 0.506	x2 = 0.6372	x2 = 0.798
293.15 K	0.0181	0.108	0.587	2.22	5.12	9.21	11.9	10	4.67
298.15 K	0.0214	0.122	0.681	2.63	6.07	10.5	13	11.2	5.65
303.15 K	0.024	0.137	0.794	2.95	6.89	11.7	14.2	12.5	6.84
308.15 K	0.0263	0.157	0.888	3.36	7.88	12.9	15.4	13.6	7.71
313.15 K	0.0283	0.177	0.992	3.72	8.81	13.8	16.5	14.9	8.58

c1ccc2[nH]c(-c3cscn3)nc2c1 + CC(C)O + O
solubility (g/100 g solution)
Conditions	283.15 K	288.15 K	293.15 K	298.15 K	303.15 K	308.15 K	313.15 K	318.15 K	323.15 K
x2 = 0.03225	0.00182	0.0023	0.00284	0.00356	0.0044	0.00539	0.00665	0.00808	0.00978
x2 = 0.06974	0.00792	0.00964	0.0123	0.015	0.0183	0.022	0.0263	0.0311	0.0368
x2 = 0.1139	0.0206	0.0251	0.0303	0.0374	0.0453	0.0539	0.064	0.0751	0.0876
x2 = 0.1666	0.0372	0.0456	0.0555	0.0669	0.0796	0.0936	0.113	0.131	0.156
x2 = 0.2307	0.0599	0.0732	0.0858	0.101	0.121	0.143	0.169	0.197	0.23
x2 = 0.3103	0.0907	0.109	0.127	0.148	0.178	0.204	0.234	0.27	0.312
x2 = 0.4117	0.131	0.154	0.181	0.213	0.249	0.287	0.329	0.379	0.433
x2 = 0.5454	0.16	0.192	0.225	0.262	0.301	0.347	0.399	0.459	0.529
x2 = 0.7297	0.197	0.23	0.268	0.309	0.36	0.413	0.47	0.534	0.6

Nc1ccc(Oc2ccc(N)cc2)cc1 + CC(=O)N(C)C + CCO
solubility (g/100 g solution)
Conditions	293.15 K	298.15 K	303.15 K	308.15 K	313.15 K	318.15 K	323.15 K	328.15 K	333.15 K
x2 = 0.0555	0.741	0.782	0.905	1.15	1.39	1.68	1.96	2.28	2.64
x2 = 0.1168	1.32	1.4	1.59	1.94	2.32	2.66	3	3.15	4.12
x2 = 0.1848	2.35	2.56	2.88	3.13	3.63	4.09	4.68	4.75	6.13
x2 = 0.2606	3.91	4.24	4.6	5.13	5.62	6.3	7.13	7.67	8.79
x2 = 0.3459	6.23	6.74	7.16	7.94	8.38	9.29	10.3	11	12.2
x2 = 0.4423	9.4	10	10.6	11.4	12	13.1	14	15.2	16.3
x2 = 0.5523	13.3	14.1	14.8	15.3	16.3	17.5	18.6	19.7	21.1
x2 = 0.679	17.9	18.6	19.3	20.2	21	22	23.2	24.2	25.1
x2 = 0.8264	22.6	23.5	24	24.5	25.6	26.7	27.4	28.7	30

COc1cc2c(cc1OC)-c1cc3ccc(OC)c(OC)c3c[n+]1CC2.[Cl-] + O + CC(C)O
solubility (g/100 g solution)
Conditions	283.15 K	288.15 K	293.15 K	298.15 K	303.15 K	308.15 K	313.15 K	318.15 K	323.15 K	328.15 K
x2 = 0.2703	0.15	0.185	0.238	0.315	0.402	0.504	0.629	0.775	0.949	1.16
x2 = 0.4546	0.201	0.247	0.317	0.417	0.531	0.663	0.824	1.01	1.24	1.51
x2 = 0.5883	0.269	0.33	0.423	0.553	0.7	0.872	1.08	1.32	1.6	1.95
x2 = 0.6897	0.356	0.437	0.559	0.725	0.933	1.19	1.46	1.76	2.11	2.49
x2 = 0.7693	0.463	0.593	0.762	0.958	1.25	1.49	1.82	2.18	2.62	3.11
x2 = 0.8334	0.587	0.719	0.914	1.17	1.46	1.8	2.19	2.65	3.18	3.81
x2 = 0.8861	0.724	0.887	1.12	1.43	1.85	2.25	2.72	3.24	3.85	4.53
x2 = 0.9303	0.871	1.07	1.35	1.7	2.17	2.67	3.23	3.87	4.64	5.28
x2 = 0.9678	1.03	1.26	1.59	1.99	2.5	3.05	3.69	4.4	5.23	6.04
